pIC50: −log10 of the molar value.
Columns and labels:
SNU-16 = assay: Cell SNU-16 assay; assay type: cell-based; conditions: Homo sapiens, SNU-16, SNU-16 cells
FGFR2 = FGFR2 (Homo sapiens (Human), UniProt P21802); assay: Biochemical FGFR2 Caliper assay
Sequence of FGFR2 (P21802 22-821): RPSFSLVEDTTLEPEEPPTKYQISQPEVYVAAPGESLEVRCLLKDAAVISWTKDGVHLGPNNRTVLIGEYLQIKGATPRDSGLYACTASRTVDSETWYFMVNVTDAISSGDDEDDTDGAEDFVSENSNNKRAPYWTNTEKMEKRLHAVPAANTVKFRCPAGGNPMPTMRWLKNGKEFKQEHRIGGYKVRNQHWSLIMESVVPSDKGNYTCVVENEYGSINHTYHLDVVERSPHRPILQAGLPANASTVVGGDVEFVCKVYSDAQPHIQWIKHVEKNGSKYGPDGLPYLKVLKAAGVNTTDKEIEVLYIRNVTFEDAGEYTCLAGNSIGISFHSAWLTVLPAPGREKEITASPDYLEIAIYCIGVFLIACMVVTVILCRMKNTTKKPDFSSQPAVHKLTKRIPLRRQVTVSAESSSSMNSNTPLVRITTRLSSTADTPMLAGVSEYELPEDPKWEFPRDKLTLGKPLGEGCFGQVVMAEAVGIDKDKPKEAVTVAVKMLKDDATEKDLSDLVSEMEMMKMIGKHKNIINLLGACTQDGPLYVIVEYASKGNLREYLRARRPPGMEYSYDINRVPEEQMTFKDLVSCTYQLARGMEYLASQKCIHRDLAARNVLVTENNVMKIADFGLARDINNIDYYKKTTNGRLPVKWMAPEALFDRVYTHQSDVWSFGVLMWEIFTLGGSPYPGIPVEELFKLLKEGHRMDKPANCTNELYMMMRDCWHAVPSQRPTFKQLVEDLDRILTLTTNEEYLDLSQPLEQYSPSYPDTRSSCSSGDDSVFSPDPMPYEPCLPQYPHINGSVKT

Structure (SMILES) | pIC50 (SNU-16) | pIC50 (FGFR2)
C=C(C)C(=O)Nc1ccc(-c2c(-c3ccc(-c4ccn(C)n4)nc3)c3c(N)ncnc3n2C)cc1 [Example 1124] | 6.00 to 6.60 | 4.00 to 6.00
C=C(C)C(=O)Nc1ccc(-c2c(-c3ccc(Oc4nccc(C)n4)cc3)c3c(C)ncnc3n2C)c(C)c1 [Example 1125] | 4.00 to 6.00 | 4.00 to 6.00
C=C(C)C(=O)Nc1ccc(-c2c(-c3ccc(Oc4nccc(C)n4)c(F)c3)c3c(C)ncnc3n2C)c(C)c1 [Example 1126] | ≥ 7.00 | > 7.00
C=CC(=O)Nc1ccc(-c2c(-c3cn[nH]c3)c3c(N)ncnc3n2C)cc1 [Example 1128] | ≥ 7.00 | > 7.00
C#Cc1cc(C)c(-c2[nH]c3ncnc(N)c3c2-c2ccc(Oc3nccc(C)n3)cc2)cn1 [Example 1130] | 6.00 to 6.60 | 6.00 to 6.60
C=C1C[C@H](C)N(c2ccc(-c3c(-c4ccc(Oc5nccc(C)n5)cc4)c4c(N)ncnc4n3C)cc2)C1=O [Example 1131] | ≥ 7.00 | > 7.00
C=CC(=C)Nc1ccc(-c2c(-c3cnn(C)c3)c3c(N)ncnc3n2C)c(C)c1 [Example 1132] | 6.00 to 6.60 | 4.00 to 6.00
C=C1C(=O)N(c2ccc(-c3c(-c4ccc(Oc5nccc(C)n5)cc4)c4c(N)ncnc4n3C)cc2)C[C@@H]1C [Example 1133] | 6.60 to 7.00 | 6.60 to 7.00
C=C1C(=O)N(c2ccc(-c3c(-c4ccc(Oc5nccc(C)n5)cc4)c4c(N)ncnc4n3C)cc2)C[C@H]1C [Example 1135] | 6.60 to 7.00 | 6.00 to 6.60
C#Cc1cc(C)c(-c2c(-c3ccc(Oc4nccc(C)n4)cc3)c3c(N)ncnc3n2C)nn1 [Example 1136] | ≥ 7.00 | > 7.00
C=CC(=O)Nc1ccc(-c2c(-c3cc4ccccc4[nH]3)c3c(N)ncnc3n2C)cc1 [Example 1138] | ≥ 7.00 | > 7.00
C#Cc1cc(C)c(-c2c(-c3ccc(C(=O)NC4CCC4)c(OC)c3)c3c(N)ncnc3n2C)cn1 [Example 1143] | 6.00 to 6.60 | 4.00 to 6.00
C#Cc1cc(C)c(-c2c(-c3cnn(C)c3)c3c(N)ncnc3n2C)cn1 [Example 1144] | ≥ 7.00 | 6.60 to 7.00
C=C(C)C(=O)Nc1ccc(-c2c(-c3ccc(-c4noc(C)n4)cc3)c3c(N)ncnc3n2C)cc1 [Example 1145] | 4.00 to 6.00 | 4.00 to 6.00
C=CC(=O)Nc1ccc(-c2c(-c3ccc4[nH]ccc4c3)c3c(N)ncnc3n2C)cc1 [Example 1148] | ≥ 7.00 | > 7.00
C=C(C)C(=O)Nc1ccc(-c2c(-c3ccc(-n4cc(C)cn4)nc3)c3c(N)ncnc3n2C(C)C)cc1 [Example 1151] | 6.00 to 6.60 | 6.60 to 7.00

Structure (SMILES) | pIC50 (SNU-16) | pIC50 (FGFR2)
C#Cc1ncc(-c2c(-c3ccc(Oc4nccc(C)n4)c(F)c3)c3c(N)ncnc3n2C)c(C)n1 [Example 1153] | 6.60 to 7.00 | > 7.00
C=CC(=O)Nc1ccc(-c2c(-c3cc[nH]c3)c3c(N)ncnc3n2C)cc1 [Example 1154] | ≥ 7.00 | > 7.00
C=C(C)C(=O)Nc1ccc(-c2c(-c3ccc(-c4ccnn4C)nc3)c3c(N)ncnc3n2C)cc1 [Example 1155] | ≥ 7.00 | > 7.00
C=CC(=O)Nc1ccc(-c2c(-c3c[nH]c4ccccc34)c3c(N)ncnc3n2C)cc1 [Example 1157] | 6.00 to 6.60 | 6.00 to 6.60
C=CC(=O)Nc1ccc(-c2c(-c3ccc(=O)[nH]c3)c3c(N)ncnc3n2C)cc1 [Example 1158] | ≥ 7.00 | > 7.00
C#Cc1cc(C)c(-c2c(-c3ccc(OC(C)C)cc3)c3c(N)ncnc3n2C)cn1 [Example 1160] | ≥ 7.00 | > 7.00
C=C(C)C(=O)Nc1cc(-c2c(-c3ccc(Oc4nccc(C)n4)c(F)c3)c3c(N)ncnc3n2C)n(C)n1 [Example 1161] | ≥ 7.00 | > 7.00
CC#Cc1ncc(-c2c(-c3ccc(Oc4nccc(C)n4)cc3)c3c(N)ncnc3n2C)c(C)n1 [Example 1162] | ≥ 7.00 | > 7.00
C#Cc1cc(C)c(-c2c(-c3ccc(Oc4nccc(C)n4)c(F)c3)c3c(C)ncnc3n2C)cn1 [Example 1163] | ≥ 7.00 | > 7.00
C#Cc1ncc(-c2c(-c3ccc(Oc4nccc(C)n4)cc3)c3c(N)ncnc3n2C)c(C)c1F [Example 1164] | ≥ 7.00 | > 7.00
C=C(C)C(=O)Nc1cc(C)c(-c2c(-c3ccc(Oc4nccc(C)n4)cc3)c3c(N)ncnc3n2C)c(C)c1 [Example 1165] | ≥ 7.00 | > 7.00
C#Cc1nc2ccc(-c3c(-c4ccc(Oc5nccc(C)n5)cc4)c4c(N)ncnc4n3C)cc2o1 [Example 1167] | ≥ 7.00 | > 7.00
C#Cc1ccc(-c2c(-c3ccc(Oc4nccc(C)n4)c(F)c3)c3c(N)ncnc3n2C)c(C)n1 [Example 1168] | 4.00 to 6.00 | > 7.00
C#Cc1ncc(-c2c(-c3ccc(Oc4nccc(C)n4)c(F)c3)c3c(C)ncnc3n2C)c(C)n1 [Example 1170] | ≥ 7.00 | > 7.00
C#Cc1nc(C)c(-c2c(-c3ccc(Oc4nccc(C)n4)cc3)c3c(N)ncnc3n2C)cc1F [Example 1171] | ≥ 7.00 | > 7.00
